Counter-ions that a name gives are not always drawn. Like-named read-outs stand apart in the source and are kept apart here.
What was measured:
[1] = not given; remark: listed apart in the source

Question: What does the source list for `CC(NC(C)(C)C)C(=O)c1cccc(Cl)c1` (stereo not shown) [AB, bupropion hydrochloride]?
Answer: stability / compatibility of bupropion hydrochloride (in words) (8 weeks): stable for the entire 8 weeks; ASSAY (25° C./60% RH, 4 wks): 97.6; TOTAL RS > LOQ (25° C./60% RH, 4 wks): <LOQ; ASSAY (25° C./60% RH, 8 wks): 100.2; TOTAL RS > LOQ (25° C./60% RH, 8 wks): 0.13; ASSAY (40° C./75% RH, 2 wks): 100.4; TOTAL RS > LOQ (40° C./75% RH, 2 wks): 0.43; ASSAY (40° C./75% RH, 4 wks): 99.3; TOTAL RS > LOQ (40° C./75% RH, 4 wks): 0.94; ASSAY (40° C./75% RH, 8 wks): 101.3; TOTAL RS > LOQ (40° C./75% RH, 8 wks): 1.16; ASSAY (50° C./ambient, 2 wks): 100.6; TOTAL RS > LOQ (50° C./ambient, 2 wks): 0.14; ASSAY (T = 0 (initial)): 100.4; TOTAL RS > LOQ (T = 0 (initial)): <LOQ

Question: For `COc1ccc2c(c1)[C@]13CCCC[C@@H]1[C@H](C2)N(C)CC3` [AD, dextromethorphan hydrobromide monohydrate], which ASSAY ([1]; 25° C./60% RH, 4 wks) is on record?
Answer: Its ASSAY is 102.5.

Question: And the “TOTAL RS” value ([1]; 25° C./60% RH, 4 wks)?
Answer: The value was 0.25.

Question: What about the ASSAY ([1]; 25° C./60% RH, 8 wks) of the same molecule?
Answer: Its ASSAY is 100.2.

Question: And the “TOTAL RS” value ([1]; 25° C./60% RH, 8 wks)?
Answer: Its value is 0.20.

Question: And the ASSAY ([1]; 40° C./75% RH, 4 wks)?
Answer: The ASSAY was 101.5.

Question: What about the “TOTAL RS” value ([1]; 40° C./75% RH, 4 wks) of the same molecule?
Answer: Its value is 0.18.

Question: And the ASSAY ([1]; 40° C./75% RH, 8 wks)?
Answer: Its ASSAY is 100.1.

Question: What about the “TOTAL RS” value ([1]; 40° C./75% RH, 8 wks) of the same molecule?
Answer: The value was 0.72.

Question: What about the ASSAY ([1]; T = 0 (initial)) of the same molecule?
Answer: Its ASSAY is 101.4.

Question: And the “TOTAL RS” value ([1]; T = 0 (initial))?
Answer: The value was 0.21.
